Experimental data taken from patent publication US12534477B2, “Compound having KHK inhibitory effect” (HANGZHOU ZHONGMEIHUADONG PHARMACEUTICAL CO., LTD., priority 2019, dated 2026).
Like-named read-outs stand apart in the source and are kept apart here.

Key:
[1] = molecular target: Recombinant Human Ketohexokinase (KHK) (Homo sapiens (Human), UniProt P50053); experiment: Ketohexokinase assay (KHK assay), ADP-Glo; format: biochemical
Protocol: • 1. EnVision multilabel reader, Perkin Elmer; • 2. OptiPlate 384-well microplate, Perkin Elmer, Cat. No. 6007290; • 3. Recombinant Human Ketohexokinase (KHK), R&D Cat. No.: 8177-HK-020, Lot No.: DDFK0117092; • 4. Fructose (D(−)-Fructose), SCR Cat. No.: 36003034; and • 5. ADP-Glo kinase assay kit, Promega_Cat. No.: V9101.
1. preparation of Dilution Buffer containing 50 mM hydroxyethylpiperazine […] (Hepes), 140 mM KCl, 3.5 mM MgCl2, and 0.01% bovine serum albumin (BSA), pH 7.4.
2. A working solution of ketohexokinase at 2.5 times concentration was prepared with Dilution Buffer, with 50 nM ketohexokinase and 12.5 mM fructose.
3. A working solution of adenosine triphosphate (ATP) at 2.5 times concentration was prepared with Dilution Buffer, with a concentration of 250 μM.
4. Each compound was diluted starting at a concentration of 500 μM, 3-fold diluted for 9 concentration points. The final concentration of the compound in the reaction system started from 10 μM and the final concentration of dimethyl sulfoxide (DMSO) was 2%.
5. A 96-well plate was prepared as a reaction plate, and was incubated at room temperature for 5 min after adding 6 μL ketohexokinase working solution at 2.5 times concentration to each well and further adding 3 μL compound working solution to each well.
6. The first well of each row was a positive control for a compound, i.e. the same volume of the buffer was added to replace the compound and ketohexokinase. The last well was a negative control for the compound, i.e. the same volume of Dilution Buffer was added instead of the compound.
7. 6 μL ATP working solution was added to each well in a 96-well reaction plate to initiate the kinase reaction. The kinase reaction was incubated in a constant temperature heater at 28° C. for 1 h.
1. A384 plate was prepared as a detection plate, and firstly 5 μL ADP-Glo reagent was added.
2. 5 μL kinase reaction mixture from the reaction plate was added to each well and incubated in a constant temperature heater at 28° C. for 30 min.
3. 10 μL kinase detection reagent was added to each well and incubated in a constant temperature heater at 28° C. for 30 min.
4. The detection plate was placed in an EnVision multilabel reader to read the chemiluminescent signal.

[2] = system: fructose metabolism in mice; experiment: Acute fructose feeding experiment in mice; format: in vivo; details: compound 30 mpk, oral fructose 1 g/kg
Protocol: The effect of test compounds on the fructose content in mice with high fructose intake was investigated.
All animals were acclimated for one week in an animal house, fed with normal chow and fasted for 16 hours before being given fructose.
1) The experiment began at −0.5 hr. A control group was given a certain volume of vehicle (a certain proportion of methylcellulose and Tween 80 in water), and an experimental group was given a certain dose of a solution of the compound (the administered volume was consistent with the vehicle).
2) 0.5 hour later and before administration of a fructose solution, a blood sample was collected at 0 hr, followed by oral administration of 1 g/kg of an aqueous fructose solution.
3) After the administration of fructose, blood samples were collected from saphenous vein of mice at 0.25, 0.5, 1, 2, 3 and 8 hr, and fructose concentration was analyzed by LC-MS/MS.

[3] = Liver-blood ratio, tissue distribution in rats; format: in vivo, SD rats; details: SD, rat, 1 mg/kg, PO 1 mpk
Protocol: Tissue distribution of compounds in SD rats was tested.
In the experiment, candidate compounds were formulated as clear solutions and administered to rats in a single oral dose (PO, 1 mpk). The vehicle for oral administration was a certain proportion of methylcellulose and Tween 80 in water. Whole blood was collected at a certain time and plasma was prepared, and tissues were collected at the corresponding time and prepared into tissue homogenates. Drug concentration was analyzed by LC-MS/MS, and pharmacokinetic parameters were calculated by Phoenix WinNonlin software.

Sequence of Recombinant Human Ketohexokinase (KHK) (P50053 whole entry): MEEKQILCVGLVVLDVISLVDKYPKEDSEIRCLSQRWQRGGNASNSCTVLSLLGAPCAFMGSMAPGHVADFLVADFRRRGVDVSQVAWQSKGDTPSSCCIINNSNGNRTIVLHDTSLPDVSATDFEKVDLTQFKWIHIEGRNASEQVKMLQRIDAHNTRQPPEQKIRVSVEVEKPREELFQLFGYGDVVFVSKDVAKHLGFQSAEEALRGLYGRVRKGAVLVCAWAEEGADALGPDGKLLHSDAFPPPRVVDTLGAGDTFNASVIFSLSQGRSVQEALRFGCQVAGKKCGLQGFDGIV

| SMILES | IC50 [1] | also measured |
| --- | --- | --- |
| C[C@H]1CCN1c1nc(N2CC3(C[C@H]3C(=O)O)C2)c2cccc(F)c2n1 [WX040] | 320 nM | – |
| C[C@H]1CCN1c1nc(Nc2ccc(C(=O)O)cc2)c2ccsc2n1 [WX012] | 9.4 nM | concentration at 1.5 h ([3]; liver, 1.5 h, read-out: Liver tissue concentration): 2100 nM; concentration at 2 h ([3]; liver, 2.0 h, read-out: Liver tissue concentration): 618 nM; concentration at 6 h ([3]; liver, 6.0 h, read-out: Liver tissue concentration): 634 nM; Kp at 1.5 h ([3]; liver/plasma, 1.5 h, read-out: Liver-blood ratio): 2.62; Kp at 2 h ([3]; liver/plasma, 2.0 h, read-out: Liver-blood ratio): 2.32; Kp at 6 h ([3]; liver/plasma, 6.0 h, read-out: Liver-blood ratio): 4.39; concentration at 1.5 h ([3]; plasma, 1.5 h, read-out: Plasma concentration): 810 nM; concentration at 2 h ([3]; plasma, 2.0 h, read-out: Plasma concentration): 273 nM; concentration at 6 h ([3]; plasma, 6.0 h, read-out: Plasma concentration): 145 nM |
| C[C@H]1CCN1c1nc(Nc2cc(F)c(CC(=O)O)c(F)c2)c2ccsc2n1 [WX014] | 14 nM | – |
| C[C@H]1CCN1c1nc(-c2cccc(CCC(=O)O)n2)c2ccsc2n1 [WX047] | 630 nM | – |
| C[C@H]1CCN1c1nc(N2CC3(C[C@@H]3CC(=O)O)C2)c2ccsc2n1 [WX054] | 1000 nM | – |
| Cc1csc2nc(N3CC[C@@H]3C)nc(N3C[C@@H]4C(CC(=O)O)[C@@H]4C3)c12 (stereo partly shown) [WX008] | 210 nM | – |
| C[C@H]1CCN1c1nc(-c2cccc(/C=C/C(=O)O)c2)c2ccsc2n1 [WX017] | 20 nM | – |
| C[C@H]1CCN1c1nc(Nc2ccc(CC(=O)O)c(F)c2)c2ccsc2n1 [WX010] | 15 nM | – |
| C[C@H]1CCN1c1nc(N2C[C@@H]3[C@@H](CC(=O)O)[C@@H]3C2)c2cc(F)sc2n1 [WX028] | 50 nM | – |
| C[C@H]1CCN1c1nc(N2C[C@@H]3[C@@H](CC(=O)O)[C@@H]3C2)c2scc(C#N)c2n1 [WX023] | 210 nM | – |
| C[C@H]1CCN1c1nc(N2C[C@@H]3[C@@H](CC(=O)O)[C@@H]3C2)c2cc(Cl)sc2n1 [WX029] | 28 nM | AUC of integral fructose concentration for dosed group [2]: 1687 nM·h; AUC of integral fructose concentration of dosed group/AUC of Integral fructose concentration of control group [2]: 15.1 |
| C[C@H]1CCN1c1nc2c(c(N3C[C@@H]4[C@@H](CC(=O)O)[C@@H]4C3)n1)CCS2 [WX026] | 91 nM | AUC of integral fructose concentration for dosed group [2]: 993 nM·h; AUC of integral fructose concentration of dosed group/AUC of Integral fructose concentration of control group [2]: 8.9 |
| C[C@H]1CCN1c1nc(-c2ccnc(CCC(=O)O)c2)c2ccsc2n1 [WX033] | 71 nM | – |
| C[C@H]1CCN1c1nc(Nc2cc(F)c(C(=O)O)c(F)c2)c2ccsc2n1 [WX015] | 6.7 nM | – |
| C[C@H]1CCN1c1nc(-c2ccc(CC(=O)O)c(F)c2)c2ccsc2n1 [WX022] | 200 nM | – |
| C[C@H]1CCN1c1nc(NC2CC(C(=O)O)C2)c2ccsc2n1 (stereo partly shown) [WX032] | 150 nM | – |

| SMILES | IC50 [1] | also measured |
| --- | --- | --- |
| C[C@H]1CCN1c1nc(N2C[C@@H]3[C@@H](CC(=O)O)[C@@H]3C2)c2sccc2n1 [WX046] | 700 nM | – |
| C[C@H]1CCN1c1nc(N2C[C@@H]3[C@@H](CC(=O)O)[C@@H]3C2)c2scnc2n1 [WX002] | 190 nM | – |
| C[C@H]1CCN1c1nc(Nc2ccc(CC(=O)O)cc2)c2ncsc2n1 [WX003] | 110 nM | – |
| C[C@H]1CCN1c1nc(-c2cccc(CCC(=O)O)c2)c2ccsc2n1 [WX016] | 32 nM | – |
| C[C@H]1CCN1c1nc(N2C[C@@H]3[C@@H](CC(=O)O)[C@@H]3C2)c2cccc(F)c2n1 [WX024] | 61 nM | AUC of integral fructose concentration for dosed group [2]: 1858 nM·h; AUC of integral fructose concentration of dosed group/AUC of Integral fructose concentration of control group [2]: 13.4 |
| C[C@H]1CCN1c1nc(N2CCC3(CC3C(=O)O)C2)c2ccsc2n1 (stereo partly shown) [WX027] | 250 nM | – |
| C[C@H]1CCN1c1nc2c(c(N3C[C@@H]4[C@@H](CC(=O)O)[C@@H]4C3)n1)CSC2 [WX021] | 160 nM | – |
| Cc1csc2nc(N3CC[C@@H]3C)nc(Nc3ccc(CC(=O)O)cc3)c12 [WX007] | 16 nM | – |
| C[C@H]1CCN1c1nc(Nc2ccc(C(=O)O)c(C#N)c2)c2ccsc2n1 [WX011] | 17 nM | – |
| C[C@H]1CCN1c1nc(N2CC3(C[C@H]3CC(=O)O)C2)c2ccsc2n1 [WX055] | 650 nM | – |
| C[C@H]1CCN1c1nc(N2CC(CC(=O)O)C2)c2ccsc2n1 [WX018] | 390 nM | – |
| C[C@H]1CCN1c1nc(N2CC[C@H](CC(=O)O)C2)c2ccsc2n1 [WX025] | 240 nM | – |
| C[C@H]1CCN1c1nc(-c2cncc(CCC(=O)O)c2)c2ccsc2n1 [WX048] | 92 nM | – |
| C[C@H]1CCN1c1nc(-c2cncc(OCC(=O)O)c2)c2ccsc2n1 [WX039] | 36 nM | – |
| C[C@H]1CCN1c1nc(N2C[C@@H]3[C@@H](CC(=O)O)[C@@H]3C2)c2c(F)csc2n1 [WX030] | 31 nM | AUC of integral fructose concentration for dosed group [2]: 1029 nM·h; AUC of integral fructose concentration of dosed group/AUC of Integral fructose concentration of control group [2]: 9.2 |
| C[C@H]1CCN1c1nc(N2C[C@@H]3[C@@H](CC(=O)O)[C@@H]3C2)nc2ncsc12 [WX005] | 650 nM | – |

Continued, in another order:

| IC50 [1] | SMILES | also measured |
| --- | --- | --- |
| 130 nM | C[C@H]1CCN1c1nc(N2CC3(C[C@@H]3C(=O)O)C2)c2ccsc2n1 [WX020] | AUC of integral fructose concentration for dosed group [2]: 1180 nM·h; AUC of integral fructose concentration of dosed group/AUC of Integral fructose concentration of control group [2]: 8.5 |
| 110 nM | C[C@H]1CCN1c1nc(N2CC3(C[C@H]3C(=O)O)C2)c2ccsc2n1 [WX019] | AUC of integral fructose concentration for dosed group [2]: 849 nM·h; AUC of integral fructose concentration of dosed group/AUC of Integral fructose concentration of control group [2]: 6.1 |
| 52 nM | C[C@H]1CCN1c1nc(N2CC3(C[C@@H]3C(=O)O)C2)c2cccc(F)c2n1 [WX041] | AUC of integral fructose concentration for dosed group [2]: 1704 nM·h; AUC of integral fructose concentration of dosed group/AUC of Integral fructose concentration of control group [2]: 6.5 |
| 360 nM | C[C@H]1CCN1c1nc(N2CC3(C[C@@H]3CC(=O)O)C2)c2cc(Cl)sc2n1 [WX056] | – |
| 100 nM | C[C@H]1CCN1c1nc(N2CC3(CC3C(=O)O)C2)c2ccsc2n1 (stereo partly shown) [WX009] | – |
| 69 nM | C[C@H]1CCN1c1nc(NC2CC3(C2)CC3C(=O)O)c2cc(Cl)sc2n1 (stereo partly shown) [WX051] | – |
| 110 nM | C[C@H]1CCN1c1nc(N2CC3(CC3C(=O)O)C2)c2cccc(F)c2n1 (stereo partly shown) [WX034] | – |
| 260 nM | C[C@H]1CCN1c1nc(N2CC3(CC3C(=O)O)C2)c2cccc(Cl)c2n1 (stereo partly shown) [WX050] | – |
| 480 nM | C[C@H]1CCN1c1nc(N2CC3(CCC3C(=O)O)C2)c2cc(Cl)sc2n1 (stereo partly shown) [WX038] | – |
| 81 nM | C[C@H]1CCN1c1nc(N2CC3(C[C@H]3C(=O)O)C2)c2cc(Cl)sc2n1 [WX044] | – |
| 30 nM | C[C@H]1CCN1c1nc(N2CC3(C[C@@H]3C(=O)O)C2)c2cc(Cl)sc2n1 [WX045] | – |
| 210 nM | C[C@H]1CCN1c1nc(N2CC3(C2)CC3(C)C(=O)O)c2cc(Cl)sc2n1 (stereo partly shown) [WX049] | – |
| 150 nM | C[C@H]1CCN1c1nc(N2CC3(CC3C(=O)O)C2)c2c(F)csc2n1 (stereo partly shown) [WX037] | – |
| 69 nM | C[C@H]1CCN1c1nc(N2CC3(CC3C(=O)O)C2)c2cc(Cl)sc2n1 (stereo partly shown) [WX036] | – |
| 200 nM | C[C@H]1CCN1c1nc(N2CC3(C[C@H]3CC(=O)O)C2)c2cc(Cl)sc2n1 [WX057] | – |
